Earlier results on two molecules are cited in US11033514B2 (priority 2016, dated 2021).

Setting [1] is: Nguyen et al. (2009), oral dose 5 grams.

`Oc1ccc(/C=C/c2cc(O)cc(O)c2)cc1` [Synthetic resveratrol]: for the setting “in vivo, po”, the “Half life in blood” value is 0.5 h and the Plasma level is 5 to 40 nM.
In the case of `Oc1ccc(/C=C/c2cc(O)cc(O)c2)cc1` [resveratrol, 3,5,4′-trihydroxy-trans-stilbene], the Half-Life (Goldberg et al. (2003), oral dose 25 mg) is 2 h. Also, under setting [1], the “% of orally administered dose of resveratrol bioavailable” value was “(0.012% of orally” and the “Unconjugated/Free Resveratrol in plasma (Bioavailability)” value is on record as 2400 nmol/L.
